# From patent US10758534B2 (Vertex Pharmaceuticals Incorporated, priority 2014, dated 2020)
# Target: T1, F508del (Homo sapiens, UniProt P13569, DEL508-508)
# T1 construct: expressed in transfected cells
# Experiment: Protocol 2: FRET membrane potential optical assay (VIPR), identification of correction compounds
# Format: cell-based
# Conditions: F508del CFTR modulator activity; compounds of Table 1; read-out: EC30
# Method in brief: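 Correction of the F508del trafficking defect is scored as forskolin (10 μM)/genistein (20 μM)-stimulated Cl^− efflux in NIH3T3 mouse fibroblasts after a 16 hr, 37° C. compound exposure. Depolarization was followed optically using voltage-sensing FRET dyes.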
# T1 sequence (P13569 with tags, fused parts or gaps DEL508-508): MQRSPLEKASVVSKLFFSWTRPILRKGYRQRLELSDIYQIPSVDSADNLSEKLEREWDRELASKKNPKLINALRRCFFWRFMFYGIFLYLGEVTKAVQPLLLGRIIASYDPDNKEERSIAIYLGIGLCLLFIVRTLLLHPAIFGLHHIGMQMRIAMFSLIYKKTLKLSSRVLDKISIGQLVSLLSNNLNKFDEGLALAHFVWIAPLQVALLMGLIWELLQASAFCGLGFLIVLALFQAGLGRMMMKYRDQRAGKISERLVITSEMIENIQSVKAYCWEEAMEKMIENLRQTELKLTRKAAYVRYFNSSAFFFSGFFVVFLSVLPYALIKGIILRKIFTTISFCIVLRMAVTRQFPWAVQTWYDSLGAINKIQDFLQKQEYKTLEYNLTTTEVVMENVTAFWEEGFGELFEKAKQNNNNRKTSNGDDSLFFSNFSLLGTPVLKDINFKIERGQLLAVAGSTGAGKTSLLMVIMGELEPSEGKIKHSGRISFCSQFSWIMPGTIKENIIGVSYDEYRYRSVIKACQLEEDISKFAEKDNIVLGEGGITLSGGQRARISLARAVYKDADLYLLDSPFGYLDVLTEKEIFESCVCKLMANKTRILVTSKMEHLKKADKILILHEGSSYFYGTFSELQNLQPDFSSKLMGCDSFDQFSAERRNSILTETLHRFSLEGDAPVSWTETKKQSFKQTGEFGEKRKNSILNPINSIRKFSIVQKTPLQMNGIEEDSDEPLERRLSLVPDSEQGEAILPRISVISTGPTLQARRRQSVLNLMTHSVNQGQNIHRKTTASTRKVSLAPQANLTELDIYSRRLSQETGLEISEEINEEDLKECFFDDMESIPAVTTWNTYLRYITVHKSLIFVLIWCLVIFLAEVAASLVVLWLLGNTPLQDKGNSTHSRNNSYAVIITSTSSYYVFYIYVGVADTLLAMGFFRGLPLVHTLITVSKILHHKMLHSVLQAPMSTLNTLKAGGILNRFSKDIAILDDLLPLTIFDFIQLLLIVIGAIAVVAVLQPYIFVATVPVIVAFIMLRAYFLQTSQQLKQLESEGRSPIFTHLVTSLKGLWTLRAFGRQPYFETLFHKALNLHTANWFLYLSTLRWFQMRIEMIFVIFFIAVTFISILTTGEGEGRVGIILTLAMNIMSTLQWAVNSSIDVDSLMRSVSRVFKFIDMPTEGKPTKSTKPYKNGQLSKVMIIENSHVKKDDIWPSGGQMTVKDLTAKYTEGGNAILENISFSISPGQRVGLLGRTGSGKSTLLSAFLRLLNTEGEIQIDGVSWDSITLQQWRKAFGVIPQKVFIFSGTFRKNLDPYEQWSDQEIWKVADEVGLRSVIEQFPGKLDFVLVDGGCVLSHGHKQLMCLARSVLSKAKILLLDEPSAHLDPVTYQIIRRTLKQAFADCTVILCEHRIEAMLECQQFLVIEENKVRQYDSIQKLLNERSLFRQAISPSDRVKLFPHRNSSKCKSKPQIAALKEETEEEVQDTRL
row,Compound,EC30 [nM]
1,"CC(C)COc1cc(F)cc(-c2ccc(C(=O)NS(=O)(=O)c3cccc(N)n3)c(N3CC(C)CC34CCC4)n2)c1 (single isomer, unassigned) [Compound 2269, N-[(6-amino-2-pyridyl)sulfonyl]-6-(3-fluoro-5-isobutoxy-phenyl)-2-(6-methyl-8-azaspiro[3.4]octa N-8-yl)pyridine-3-carboxamide]",< 3000
2,"CC(C)OC(=O)N1CC=C(c2cc(C(=O)NS(=O)(=O)c3cccc(N)n3)c(N3C[C@@H](C)CC3(C)C)nc2C(C)(C)C)CC1 [Compound 2027, isopropyl 4-[5-[(6-amino-2-pyridyl)sulfonylcarbamoyl]-2-tert-butyl-6-[(4S)-2,2,4-trimethylpyrrolidin-1-yl]-3-pyridyl]-3,6-dihydro-2H-pyridine-1-carboxylate]",< 3000
3,"CC1CN(c2ncccc2C(=O)NS(=O)(=O)c2cccc(Oc3ccc4c(c3)OCO4)n2)C(C)(C)C1 (stereo not drawn) [Compound 2013, N—[[6-(1,3-benzodioxol-5-yloxy)-2-pyridyl]sulfonyl]-2-(2,2,4-trimethylpyrrolidin-1-yl)pyridine-3-carboxamide]",< 3000
4,"C[C@@H]1CN(c2nc(-n3ccc(OCC(C)(C)C)n3)ccc2C(=O)NS(=O)(=O)c2cccnc2N2CCCCC2)C(C)(C)C1 [Compound 2670, 6-[3-(2,2-dimethylpropoxy)pyrazol-1-yl]-N-[[2-(1-piperidyl)-3-pyridyl]sulfonyl]-2-[(4S)-2,2,4-trimethylpyrrolidin-1-yl]pyridine-3-carboxamide]",< 3000
5,"COc1cc(-c2ccc(C(=O)NS(=O)(=O)c3cccnc3N)c(N3C[C@@H](C)CC3(C)C)n2)ccc1C [Compound 2379, N-[(2-amino-3-pyridyl)sulfonyl]-6-(3-methoxy-4-methyl-phenyl)-2-[(4S)-2,2,4-trimethylpyrrolidin-1-yl]pyridine-3-carboxamide]",< 3000
6,"Cc1cc(-c2ccc(C(=O)NS(=O)(=O)c3cccc(N)n3)c(N3C[C@@H](C)CC3(C)C)n2)cc(OCCOC(C)C)n1 [Compound 2079, N-[(6-amino-2-pyridyl)sulfonyl]-6-[2-(2-isopropoxyethoxy)-6-methyl-4-pyridyl]-2-[(4S)-2,2,4-trimethylpyrrolidin-1-yl]pyridine-3-carboxamide]",< 3000
7,"CCOc1cc(C)cc(-c2ccc(C(=O)NS(=O)(=O)c3ccc[nH]c3=O)c(N3C[C@@H](C)CC3(C)C)n2)c1 [Compound 2512, 6-(3-ethoxy-5-methyl-phenyl)-N-[(2-oxo-1H-pyridin-3-yl)sulfonyl]-2-[(4S)-2,2,4-trimethylpyrrolidin-1-yl]pyridine-3-carboxamide]",< 3000
8,"CC(C)COc1cc(F)cc(-c2ccc(C(=O)NS(=O)(=O)c3cccc(N)n3)c(N3CC(C(C)(C)C)CC3(C)C)n2)c1 (stereo not drawn) [Compound 2538, N-[(6-amino-2-pyridyl)sulfonyl]-2-(4-tert-butyl-2,2-dimethyl-pyrrolidin-1-yl)-6-(3-fluoro-5-isobutoxy-phenyl)pyridine-3-carboxamide]",< 3000
9,"C[C@@H]1CN(c2nc(-n3ccc(OCC(C)(C)C)n3)ccc2C(=O)NS(=O)(=O)C2CC2)C(C)(C)C1 [Compound 2554, N-cyclopropylsulfonyl-6-[3-(2,2-dimethylpropoxy)pyrazol-1-yl]-2-[(4S)-2,2,4-trimethylpyrrolidin-1-yl]pyridine-3-carboxamide]",< 3000
10,"CC1CN(c2ncccc2C(=O)NS(=O)(=O)c2cccc(N3CCC(Cc4ccccc4)CC3)n2)C(C)(C)C1 (stereo not drawn) [Compound 2107, N—[[6-(4-benzyl-1-piperidyl)-2-pyridyl]sulfonyl]-2-(2,2,4-trimethylpyrrolidin-1-yl)pyridine-3-carboxamide]",< 3000

# Same assay, conditions: Table 3; compounds of Table 1 as modulators of CFTR activity; protocol not stated
row,Compound,EC30
1,"Cc1ccnc(C)c1Oc1nc(C(C)(C)C)ccc1C(=O)NS(=O)(=O)c1cccc(N)n1 [Compound 460, N-[(6-amino-2-pyridyl)sulfonyl]-6-tert-butyl-2-[(2,4-dimethyl-3-pyridyl)oxy]pyridine-3-carboxamide]",++ (“++” means between 3 uM and 10 uM)
2,"Cc1cc(C)c(Cn2c(C(=O)NS(=O)(=O)c3ccccc3)cc3ccc(F)cc32)c(C)c1 [Compound 212, N-(benzenesulfonyl)-6-fluoro-1-[(2,4,6-trimethylphenyl)methyl]indole-2-carboxamide]",+++ (“+++” means <3 uM)
3,"CC(C)Oc1cc(F)cc(-c2ccc(C(=O)NS(=O)(=O)c3ccc[nH]c3=O)c(N3[C@H](C)CC[C@@H]3C)n2)c1 [Compound 487, 2-[(2S,5R)-2,5-dimethylpyrrolidin-1-yl]-6-(3-fluoro-5-isopropoxy-phenyl)-N-[(2-oxo-1H-pyridin-3-yl)sulfonyl]pyridine-3-carboxamide]",++ (“++” means between 3 uM and 10 uM)
4,"Cc1cccc(C)c1Cn1nc(C(C)(C)C)cc1C(=O)NS(=O)(=O)c1c(F)cccc1F [Compound 170, 5-tert-butyl-N-(2,6-difluorophenyl)sulfonyl-2-[(2,6-dimethylphenyl)methyl]pyrazole-3-carboxamide]",+++ (“+++” means <3 uM)
5,"Cc1cc(C)c(Oc2nc(-c3cc(F)cc(OCC(C)C)c3)ccc2C(=O)NS(=O)(=O)c2cncc(N)n2)c(C)c1 [Compound 586, N-(6-aminopyrazin-2-yl)sulfonyl-6-(3-fluoro-5-isobutoxy-phenyl)-2-(2,4,6-trimethylphenoxy)pyridine-3-carboxamide]",+++ (“+++” means <3 uM)
6,"CC(C)COc1cc(F)cc(-c2ccc(C(=O)NS(=O)(=O)c3ccn[nH]3)c(N3CCCC(C(C)C)C3)n2)c1 (stereo not drawn) [Compound 498, 6-(3-fluoro-5-isobutoxy-phenyl)-2-(3-isopropyl-1-piperidyl)-N-(1H-pyrazol-5-ylsulfonyl)pyridine-3-carboxamide]",+++ (“+++” means <3 uM)
7,"CC(C)COc1cccc(-c2ccc(C(=O)NS(=O)(=O)c3cccc(N)n3)c(N3[C@H](C)CC[C@@H]3C)n2)n1 [Compound 432, N-[(6-amino-2-pyridyl)sulfonyl]-2-[(2S,5R)-2,5-dimethylpyrrolidin-1-yl]-6-(6-isobutoxy-2-pyridyl)pyridine-3-carboxamide]",+++ (“+++” means <3 uM)
8,"CC(C)(C)c1cccc(-c2nc(C(C)(C)C)ccc2C(=O)NS(=O)(=O)c2cccc(N)c2)c1 [Compound 229, N-(3-aminophenyl)sulfonyl-6-tert-butyl-2-(3-tert-butylphenyl)pyridine-3-carboxamide]",+++ (“+++” means <3 uM)
9,"CC(C)COc1cc(F)cc(-c2ccc(C(=O)NS(=O)(=O)c3cccc(N)n3)c(N3CCCC(C4CC4)C3)n2)c1 (stereo not drawn) [Compound 655, N-[(6-amino-2-pyridyl)sulfonyl]-2-(3-cyclopropyl-1-piperidyl)-6-(3-fluoro-5-isobutoxy-phenyl)pyridine-3-carboxamide]",+++ (“+++” means <3 uM)
10,"Cc1cc(C)c(CN2Cc3ccccc3C2C(=O)NS(=O)(=O)c2ccc(N)cc2)c(C)c1 (stereo not drawn) [Compound 121, N-(4-aminophenyl)sulfonyl-2-[(2,4,6-trimethylphenyl)methyl]isoindoline-1-carboxamide]",++ (“++” means between 3 uM and 10 uM)
11,"COc1ccc(-c2ccc(C(=O)NS(=O)(=O)c3cccc(N)n3)c(Oc3c(C)cc(C)cc3C)n2)cn1 [Compound 531, N-[(6-amino-2-pyridyl)sulfonyl]-6-(6-methoxy-3-pyridyl)-2-(2,4,6-trimethylphenoxy)pyridine-3-carboxamide]",+++ (“+++” means <3 uM)
